According to patent US8192962B2, “Processes for detecting toxic substances” (Daikin Industries, Ltd., priority 2001, dated 2012):

Test system: Transport facilitation protein genes
Test: DNA chip mRNA expression in yeast, transport facilitation protein genes (Table 5)
Assay type: cell-based, Saccharomyces cerevisiae S288C
Outline: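 In this screen, yeast in logarithmic growth are challenged for two hours with a toxic substance at a non-lethal inhibitory concentration. Their mRNA, converted to Cy3- or Cy5-labeled cDNA, hybridizes at 65° C. to a chip spanning every yeast gene, and expression is expressed as a ratio to untreated cells.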

CCCCC[C@H](O)CC(=O)CCc1ccc(O)c(OC)c1 [(13), gingerol]
The level of expressed mRNA in the presence of chemical substance/The level of expressed mRNA in the absence of chemical substance (yeast gene YBL030C): 0.5
The level of expressed mRNA in the presence of chemical substance/The level of expressed mRNA in the absence of chemical substance (yeast gene YBL099W): 0.9
The level of expressed mRNA in the presence of chemical substance/The level of expressed mRNA in the absence of chemical substance (yeast gene YBR052C): 2.1
The level of expressed mRNA in the presence of chemical substance/The level of expressed mRNA in the absence of chemical substance (yeast gene YBR068C): 2.2
The level of expressed mRNA in the presence of chemical substance/The level of expressed mRNA in the absence of chemical substance (yeast gene YBR127C): 0.9
The level of expressed mRNA in the presence of chemical substance/The level of expressed mRNA in the absence of chemical substance (yeast gene YBR132C): 1.4
The level of expressed mRNA in the presence of chemical substance/The level of expressed mRNA in the absence of chemical substance (yeast gene YBR207W): 2.2
The level of expressed mRNA in the presence of chemical substance/The level of expressed mRNA in the absence of chemical substance (yeast gene YBR291C): 1.0
The level of expressed mRNA in the presence of chemical substance/The level of expressed mRNA in the absence of chemical substance (yeast gene YBR293W): 3.0
The level of expressed mRNA in the presence of chemical substance/The level of expressed mRNA in the absence of chemical substance (yeast gene YBR294W): 3.1
The level of expressed mRNA in the presence of chemical substance/The level of expressed mRNA in the absence of chemical substance (yeast gene YBR295W): 1.8
The level of expressed mRNA in the presence of chemical substance/The level of expressed mRNA in the absence of chemical substance (yeast gene YBR298C): 0.8
The level of expressed mRNA in the presence of chemical substance/The level of expressed mRNA in the absence of chemical substance (yeast gene YCL025C): 0.5
The level of expressed mRNA in the presence of chemical substance/The level of expressed mRNA in the absence of chemical substance (yeast gene YCL038C): 1.9
The level of expressed mRNA in the presence of chemical substance/The level of expressed mRNA in the absence of chemical substance (yeast gene YCL069W): 0.8
The level of expressed mRNA in the presence of chemical substance/The level of expressed mRNA in the absence of chemical substance (yeast gene YCR024C-A): 0.5
The level of expressed mRNA in the presence of chemical substance/The level of expressed mRNA in the absence of chemical substance (yeast gene YCR037C): 1.3
The level of expressed mRNA in the presence of chemical substance/The level of expressed mRNA in the absence of chemical substance (yeast gene YCR098C): 1.4
The level of expressed mRNA in the presence of chemical substance/The level of expressed mRNA in the absence of chemical substance (yeast gene YDL128W): 1.6
The level of expressed mRNA in the presence of chemical substance/The level of expressed mRNA in the absence of chemical substance (yeast gene YDL198C): 2.0
The level of expressed mRNA in the presence of chemical substance/The level of expressed mRNA in the absence of chemical substance (yeast gene YDL210W): 1.2
The level of expressed mRNA in the presence of chemical substance/The level of expressed mRNA in the absence of chemical substance (yeast gene YDL245C): 2.0
The level of expressed mRNA in the presence of chemical substance/The level of expressed mRNA in the absence of chemical substance (yeast gene YDR038C): 2.0
The level of expressed mRNA in the presence of chemical substance/The level of expressed mRNA in the absence of chemical substance (yeast gene YDR039C): 1.8
The level of expressed mRNA in the presence of chemical substance/The level of expressed mRNA in the absence of chemical substance (yeast gene YDR086C): 0.7
The level of expressed mRNA in the presence of chemical substance/The level of expressed mRNA in the absence of chemical substance (yeast gene YDR270W): 1.8
The level of expressed mRNA in the presence of chemical substance/The level of expressed mRNA in the absence of chemical substance (yeast gene YDR298C): 1.2
The level of expressed mRNA in the presence of chemical substance/The level of expressed mRNA in the absence of chemical substance (yeast gene YDR342C): 0.6
The level of expressed mRNA in the presence of chemical substance/The level of expressed mRNA in the absence of chemical substance (yeast gene YDR343C): 0.8
The level of expressed mRNA in the presence of chemical substance/The level of expressed mRNA in the absence of chemical substance (yeast gene YDR345C): 1.2
The level of expressed mRNA in the presence of chemical substance/The level of expressed mRNA in the absence of chemical substance (yeast gene YDR387C): 1.3
The level of expressed mRNA in the presence of chemical substance/The level of expressed mRNA in the absence of chemical substance (yeast gene YEL027W): 0.7
The level of expressed mRNA in the presence of chemical substance/The level of expressed mRNA in the absence of chemical substance (yeast gene YEL065W): 0.8
The level of expressed mRNA in the presence of chemical substance/The level of expressed mRNA in the absence of chemical substance (yeast gene YER119C): 1.6
The level of expressed mRNA in the presence of chemical substance/The level of expressed mRNA in the absence of chemical substance (yeast gene YFL011W): 0.8
The level of expressed mRNA in the presence of chemical substance/The level of expressed mRNA in the absence of chemical substance (yeast gene YFL041W): 1.8
The level of expressed mRNA in the presence of chemical substance/The level of expressed mRNA in the absence of chemical substance (yeast gene YFL050C): 1.2
The level of expressed mRNA in the presence of chemical substance/The level of expressed mRNA in the absence of chemical substance (yeast gene YFL054C): 2.3
The level of expressed mRNA in the presence of chemical substance/The level of expressed mRNA in the absence of chemical substance (yeast gene YFL055W): 1.3
The level of expressed mRNA in the presence of chemical substance/The level of expressed mRNA in the absence of chemical substance (yeast gene YGL008C): 1.9
The level of expressed mRNA in the presence of chemical substance/The level of expressed mRNA in the absence of chemical substance (yeast gene YGL104C): 2.0
The level of expressed mRNA in the presence of chemical substance/The level of expressed mRNA in the absence of chemical substance (yeast gene YGL167C): 1.5
The level of expressed mRNA in the presence of chemical substance/The level of expressed mRNA in the absence of chemical substance (yeast gene YGR055W): 1.9
The level of expressed mRNA in the presence of chemical substance/The level of expressed mRNA in the absence of chemical substance (yeast gene YGR065C): 0.8
The level of expressed mRNA in the presence of chemical substance/The level of expressed mRNA in the absence of chemical substance (yeast gene YGR082W): 0.5
The level of expressed mRNA in the presence of chemical substance/The level of expressed mRNA in the absence of chemical substance (yeast gene YGR138C): 0.6
The level of expressed mRNA in the presence of chemical substance/The level of expressed mRNA in the absence of chemical substance (yeast gene YGR191W): 1.0
The level of expressed mRNA in the presence of chemical substance/The level of expressed mRNA in the absence of chemical substance (yeast gene YGR197C): 2.4
The level of expressed mRNA in the presence of chemical substance/The level of expressed mRNA in the absence of chemical substance (yeast gene YGR224W): 0.8
The level of expressed mRNA in the presence of chemical substance/The level of expressed mRNA in the absence of chemical substance (yeast gene YGR260W): 0.5
